The results in this text go back to patent US20240409560A1, “PYRIMIDINE TRICYCLIC DERIVATIVE AND PHARMACEUTICAL APPLICATION THEREOF” (CHIA TAI TIANQING PHARMACEUTICAL GROUP CO., LTD., priority 2021, published 2024).

Broadly, the clearance is the rate of elimination divided by the concentration. The low end stands for a low capacity for elimination, the high end for a high capacity for elimination. For orientation: half-life means the time in which the quantity being followed falls by half. Higher therefore signals slow decline. Broadly, the bioavailability is dose-corrected exposure relative to a reference, in per cent. Lower therefore signals poor availability.

For one data set, the target named is T1, sGC (Homo sapiens, UniProt Q02153).
T1 construct: endogenous in cells; host or cells: LNCaP cells (14th passage), no transfection described
T1 sequence (Q02153 1-619): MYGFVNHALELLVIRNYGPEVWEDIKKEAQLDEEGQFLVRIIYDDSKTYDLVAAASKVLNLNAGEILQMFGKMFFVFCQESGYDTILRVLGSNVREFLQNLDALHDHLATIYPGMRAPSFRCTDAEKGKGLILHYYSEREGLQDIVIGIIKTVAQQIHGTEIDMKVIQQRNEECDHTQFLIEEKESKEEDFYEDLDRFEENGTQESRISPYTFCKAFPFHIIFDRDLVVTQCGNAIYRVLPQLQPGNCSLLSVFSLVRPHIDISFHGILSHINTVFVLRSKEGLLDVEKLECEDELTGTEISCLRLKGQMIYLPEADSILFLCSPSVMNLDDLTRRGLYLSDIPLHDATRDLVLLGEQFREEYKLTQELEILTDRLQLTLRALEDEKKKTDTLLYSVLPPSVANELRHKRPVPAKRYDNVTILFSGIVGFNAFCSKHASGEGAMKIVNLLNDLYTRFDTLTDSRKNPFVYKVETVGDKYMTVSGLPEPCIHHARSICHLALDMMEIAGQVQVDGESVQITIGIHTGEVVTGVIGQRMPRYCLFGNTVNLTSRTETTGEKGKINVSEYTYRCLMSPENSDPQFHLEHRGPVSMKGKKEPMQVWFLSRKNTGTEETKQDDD
T1 sequence (Q02108 1-690 partner): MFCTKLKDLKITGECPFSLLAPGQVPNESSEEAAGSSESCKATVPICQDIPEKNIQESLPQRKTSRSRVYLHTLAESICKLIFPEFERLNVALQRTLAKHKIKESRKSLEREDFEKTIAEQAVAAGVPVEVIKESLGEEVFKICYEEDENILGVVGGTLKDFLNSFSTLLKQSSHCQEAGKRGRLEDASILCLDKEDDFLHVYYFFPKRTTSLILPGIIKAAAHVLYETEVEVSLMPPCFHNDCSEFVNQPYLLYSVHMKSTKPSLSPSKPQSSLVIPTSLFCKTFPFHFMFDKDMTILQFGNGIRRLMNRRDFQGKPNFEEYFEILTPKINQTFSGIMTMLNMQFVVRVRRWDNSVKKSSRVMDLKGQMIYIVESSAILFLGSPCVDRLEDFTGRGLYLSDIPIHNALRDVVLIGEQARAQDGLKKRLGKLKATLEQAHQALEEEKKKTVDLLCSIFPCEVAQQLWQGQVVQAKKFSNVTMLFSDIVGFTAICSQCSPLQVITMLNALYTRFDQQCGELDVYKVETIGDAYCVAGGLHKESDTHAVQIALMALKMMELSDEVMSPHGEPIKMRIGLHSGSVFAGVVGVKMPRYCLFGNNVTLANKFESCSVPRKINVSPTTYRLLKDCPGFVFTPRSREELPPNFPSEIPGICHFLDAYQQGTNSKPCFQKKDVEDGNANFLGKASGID
Put plainly: LNCap cell-based cGMP expression assay (HTRF). Conditions: minimum effective concentration to stimulate cGMP production (three times greater than the basal value) in lnCap cells; DETA-NO added. The protocol: I. InCap Cell-Based cGMP Expression Assay
• 10 g of BSA was dissolved in 100 mL of double distilled water (ddH2O) to give 10% BSA.
• 10 mg of DETA-NO was weighed out and dissolved in 12.2 mL of double distilled water (ddH2O) to give 5 mM DETA-NO, which was aliquoted and cryopreserved in a freezer at −20° C.
• a) To 1 mL of a lysis buffer was added 50 μL of cGMP-D2 (D2-labeled cyclic guanosine monophosphate), and the mixture was well mixed. • b) To 1 mL of a lysis buffer was added 50 μL of anti-cGMP cryptate (Eu^3+ cryptate-labeled anti-cyclic guanosine monophosphate antibody), and the mixture was well mixed.
• (1) The compounds were diluted to 5 mM with DMSO, 10 μL of each of the compounds was transferred to a shallow well plate for Echo. • (2) The compounds were serially diluted with Echo. Each of the compounds was diluted to obtain 10 concentration gradients, and 50 nL of each compound at each concentration gradient was added to a 384 microwell plate.
• (1) LNCap medium: RPMI1640+10% fetal bovine serum+1% […]. • (2) Phosphate buffered saline, pancreatin, and the medium used in the process of cell passaging were pre-heated in a water bath at 37° C. • (3) The cells (the 14th generation) were taken out of the 37° C. 5% CO2 incubator, and the old medium was pipetted off the culture flask. • (4) 5 mL of phosphate buffered saline was pipetted into the culture flask to rinse the cells, and then the liquid was discarded. • (5) 3 mL of pancreatin was pipetted into the culture flask. After the culture flask was shaken, the liquid was discarded, and the culture flask was placed in the incubator. • (6) After about 2 min, the culture flask was taken out. […] The cell suspension was transferred to a 50 mL centrifuge tube. • (7) 0.7 mL of the cell suspension was pipetted into a counter cup and the cells were counted on a ViCell XR. […]
• (1) cGMP-D2 was transferred to the 384 microwell plate at 5 μL/well using Bravo. […] The mixtures were centrifuged at 1500 rpm for 1 min. • (3) The plate was incubated at room temperature for 1 h. • (4) 665/615 was read using envision. […]
On the technique in general: In TR-FRET formats the signal depends on donor and acceptor labels being close together.

A short description of data set [1]: In vivo pharmacokinetic property study in male SD rats. Conditions: Sprague-Dawley, rat, plasma. On the procedure:
Objective: This study was intended to determine the pharmacokinetic parameters of the compounds in male SD rats.
Sprague Dawley rats (Male, 200-300 g, 7-9 weeks old, Shanghai SLAC)
In the project, 4 male SD rats were used. One group of 2 SD rats were dosed by intravenous injection at 0.3 mg/kg, 0.15 mg/mL and another group of 2 SD rats were orally dosed at 1 mg/kg, 0.2 mg/mL. Plasma samples were collected at 0.083 h (the intravenous injection group only), 0.25 h, 0.5 h, 1 h, 2 h, 4 h, 6 h, 8 h, 12 h, and 24 h after the dosing and then subjected to LC-MS/MS analysis, and data were recorded. Relevant pharmacokinetic parameters were calculated using the Phoenix WinNonlin 6.3 software based on the recorded data.

Data set [2] can be described thus: Tissue distribution study in rats, oral administration. Conditions: male SD rats, po 1 mg/kg; samples at 2, 6, 12 h. The format is in vivo, Sprague Dawley rats. The protocol:
Objective: This study was intended to test the distribution ratio of the compounds in plasma, heart, cerebrospinal fluid, and brain tissue in the case of oral administration.
Sprague Dawley Rats (Male, 200-300 g, 7-9 Weeks Old, Shanghai SLAC)
In the project, 6 male SD rats were orally dosed at 1 mg/kg, 0.2 mg/mL. Samples of cerebrospinal fluid, brain, heart tissue, and plasma were collected at 2 h, 6 h, and 12 h after the dosing and then subjected to LC-MS/MS analysis, and data were recorded. Relevant pharmacokinetic parameters were calculated using the Phoenix WinNonlin 6.3 software based on the recorded data.

`CO[C@]12C(=O)Nc3nc(-c4nn(CCC(F)(F)C(F)(F)F)c5ncc(F)cc45)nc(c31)NC(=O)C2(C)C` [Compound 007]: at sGC, the “MEC of the stimulating activity for sGC” value stood at 548 nM.

Turning to `CO[C@@]12C(=O)Nc3nc(-c4nn(CCC(F)(F)C(F)(F)F)c5ncc(F)cc45)nc(c31)NC(=O)C2(C)C` [Compound 006], the “MEC of the stimulating activity for sGC” value on sGC is listed as 214 nM. In data set [1] (iv 0.3 mg/kg), this molecule gave a clearance of 4.58 mL/min/kg and a half-life of 6.28 h. Further, the Vd in data set [1] (iv 0.3 mg/kg, read-out: Vdss) turned out to be 2.36 L/kg. In data set [1] (po 1 mg/kg), this molecule had a bioavailability of 65% and a half-life of 6.7 h. Moreover, in data set [2], the “AUC0-last, heart” value was 6970 h*nmol/L or h*nmol/kg and the “AUC0-last, plasma” value is listed as 1889 h*nmol/L or h*nmol/kg.

For the molecule `CC1(C)C(=O)Nc2nc(-c3nn(Cc4ccccc4F)c4ncc(F)cc34)nc3c2C1(O)C(=O)N3` (stereo not shown) [Compound 016], the “MEC of the stimulating activity for sGC” value at sGC came out at 19.3 nM.
